Measured values reported in publication PMC7380166, “How to Study the Metabolism of New Psychoactive Substances for the Purpose of Toxicological Screenings—A Follow-Up Study Comparing Pooled Human Liver S9, HepaRG Cells, and Zebrafish Larvae” (Frontiers in Chemistry, 2020).
Like-named read-outs stand apart in the source and are kept apart here.

Experiments:
[1] = Incubations with pooled human liver S9 fraction (pHLS9), metabolite identification by LC-HRMS/MS; format: in vitro ADME; details: human data for ephylone and 4F-PHP from Wagmann et al., [2019b]
Experimental: According to published procedures (Richter et al., [2017b], [2019b]; Caspar et al., [2018b]; Wagmann et al., [2019b],[c]), the final incubation volume per reaction tube was 150 μl, with a final protein concentration of 2 mg/ml. The given concentrations represent final concentrations. A preincubation for 10 min at 37°C with UGT reaction mixture solution B (containing alamethicin, 25 μg/ml), MgCl2 (2.5 mM), NADP^+ (0.6 mM), isocitrate (2.5 mM), isocitrate dehydrogenase (0.8 U/ml), superoxide dismutase (100 U/ml), acetyl coenzyme A (0.1 mM), phosphate buffer (90 mM, pH 7.4), and pHLS9 (2 mg/ml) was done. Afterwards, UGT reaction mixture solution A (containing UDP glucuronic acid, 2.5 mM), PAPS (40 μM), SAM (1.2 mM), dithiothreitol (1 mM), and glutathione (10 mM) were added, as well as 25 μM 4F-MDMB-BINACA to start the reactions. The mixture was incubated for 360 min. Total amount of organic solvent in incubation mixtures was <2% (Chauret et al., [1998]). After 60 min, an aliquot of the reaction mixture (60 μl) was transferred in another reaction tube containing 20 μl of ice-cold acetonitrile to terminate the reactions. The remaining aliquot (90 μl) was incubated for an additional 300 min, and then the reactions were stopped by adding 30 μl of ice-cold acetonitrile. Thereafter, the reaction tubes were cooled at −20°C for 30 min prior to centrifugation at 18,407 × g for 2 min. The supernatants (50 μl) were transferred into autosampler vials, and 1 μl was injected onto the LC-HRMS/MS system. Control samples without pHLS9 and blank samples without substrate were prepared to confirm the absence of non-metabolically formed and interfering compounds, respectively. All incubations were performed in duplicate.
According to a previous study (Richter et al., [2019a]), a Thermo Fisher Scientific (TF, Dreieich, Germany) Dionex UltiMate 3000 Rapid Separation (RS) UHPLC system with a quaternary UltiMate 3000 RS pump and an UltiMate 3000 RS autosampler controlled by the TF Chromeleon software version 6.8 was used. The LC system was coupled to an Orbitrap-based TF Q-Exactive Plus equipped with a heated electrospray ionization II (HESI-II) source. Calibration was done prior to analysis with a Positive Cal Mix (Supelco, Bellefonte, PA, USA) at a flow rate of 3 μl/min using a syringe pump. The conditions of the LC system were as follows: TF Accucore PhenylHexyl column (100 × 2.1 mm, 2.6 μm particle size); gradient elution with 2 mM ammonium formate solution containing 0.1% (v/v) formic acid (eluent A) and 2 mM ammonium formate solution in acetonitrile/methanol (50:50, v/v) containing 0.1% (v/v) formic acid, and 1% (v/v) water (eluent B). […] The following gradient was used: 0–1.0 min hold 1% B, 1–10 min to 99% B, 10–11.5 min hold 99% B, 11.5–13.5 min hold 1% B. The HESI-II source conditions were as follows: ionization mode, positive; heater temperature, 320°C; ion transfer capillary temperature, 320°C; sheath gas, 60 arbitrary units (AU); auxiliary gas, 10 AU; spray voltage, 4.00 kV; and S-lens RF level, 50.0. Mass spectrometry experiments were performed using high-resolution (HR) full scan mode and a targeted MS^2 mode with an inclusion list for each NPS. The inclusion list contained m/z values of metabolites, which were likely to be formed for example hydroxy, oxo, carboxy, dealkyl, demethylenylated, and defluorinated metabolites (phase I) as well as sulfates and glucuronides (phase II) and combinations of them. Full scan settings were as follows: resolution, 35,000; automatic gain control (AGC) target, 3e6; maximum injection time (IT), 120 ms; scan ranges, 3,4-DMA-NBOMe m/z 100–700, ephylone m/z 200–600, 4F-MDMB-BINACA m/z 150–700, 4F-PHP m/z 200–600, and 1P-LSD m/z 250–700. The settings for the targeted MS^2 mode with the respective inclusion lists were as follows: resolution, 17,500; AGC target, 2e5; maximum IT, 250 ms; loop count, 5; isolation window, 1.0 m/z; stepped normalized collision energy (NCE), 17.5, 35, 52.5%; pick others, enabled. […]

HepaRG cells = assay: Incubations with HepaRG cells, metabolite identification by LC-HRMS/MS; format: in vitro ADME, human; details: for Absolute peak area, HepaRG [25 μM]: 25 μM parent NPS; for Absolute peak area, HepaRG [25 μM] / Number of phase I metabolites detected, HepaRG [25 μM] / Number of phase II metabolites detected, HepaRG [25 μM] / Absolute peak area, HepaRG [250 μM] / Number of phase I metabolites detected, HepaRG [250 μM] / Number of phase II metabolites detected, HepaRG [250 μM]: 24 h; for Absolute peak area, HepaRG [25 μM] / Absolute peak area, HepaRG [250 μM]: cell culture medium, one replicate of n = 3, n.d. = not detected; for Absolute peak area, HepaRG [250 μM]: 250 μM parent NPS; for Relative number of matches with the four most abundant signals in human plasma, HepaRG [25 μM] / Relative number of matches with the four most abundant signals in human plasma, HepaRG [250 μM] / Relative number of matches with the four most abundant signals in human urine, HepaRG [25 μM] / Relative number of matches with the four most abundant signals in human urine, HepaRG [250 μM]: human data for ephylone and 4F-PHP from Wagmann et al., [2019b]
zebrafish larvae [2] = assay: In vivo maximum-tolerated concentration (MTC) study in zebrafish larvae; design: species or system zebrafish (Danio rerio); details: for Survival rate / Survival rates for all tested concentrations / Malformations: larvae 4 dpf; for Survival rate: 24-h treatment, fifteen larvae; for Survival rates for all tested concentrations: 0.01 to 100 μM; for Survival rates for all tested concentrations / Malformations: 24 h; for Concentration considered non-toxic for zebrafish larvae (4 dpf): 24 h exposure via medium; for Malformations: up to 100 μM
Experimental: Internal protocols based on published standard methods (Westerfield, [2007]) were used to perform zebrafish husbandry and the maximum-tolerated concentration (MTC) testing was based on a previous study (Richter et al., [2019a]). Danieau's medium [17 mM NaCl, 2 mM KCl, 0.12 mM MgSO4, 1.8 mM Ca(NO3)2, 1.5 mM HEPES, pH 7.1–7.3, and 1.2 μM methylene blue] at 28°C was used to raise zebrafish larvae of the AB wild-type strain. For MTC testing, 96-well plates were used with 100 μl of medium and one larva per well. Drug exposition was started 4 dpf using 0, 0.01, 0.1, 1, 10, 50, or 100 μM final concentrations of 3,4-DMA-NBOMe, ephylone, 4F-MDMB-BINACA, 4F-PHP, or 1P-LSD, respectively. The drug exposure in the incubator at 28°C lasted 24 h. The final DMSO concentration was 1% (v/v) for all experiments. Monitoring of the larvae was done using a LEICA M205 FA stereo microscope (Leica Mikrosysteme Vertrieb GmbH, Wetzlar, Germany) to detect developmental defects and/or decreased survival rates. Fifteen larvae were used for each experiment.

[3] = ref Wagmann et al., cited from earlier work; for Number of phase I metabolites detected, pHLS9 [25 μM] / Number of phase II metabolites detected, pHLS9 [25 μM]: [2019b]; for Detection in pHLS9 [25 µM]: n = 2, according to literature
monooxygenases = details: initial monooxygenases activity screenings described elsewhere; ref Caspar et al., [2018a]; Wagmann et al., [2019b],[c]; cited from earlier work
[4] = cited from earlier work
zebrafish larvae [5] = assay: Zebrafish larvae exposure, metabolite identification by LC-HRMS/MS; details: for Number of phase I metabolites detected, Zebrafish larvae / Number of phase II metabolites detected, Zebrafish larvae: 100 μM in medium; for Number of phase I metabolites detected, Zebrafish larvae / Number of phase II metabolites detected, Zebrafish larvae / Absolute peak area, Zebrafish larvae [100 µM]: 24 h; for Absolute peak area, Zebrafish larvae [100 µM]: 100 µM parent NPS in medium, larvae 4 dpf, larvae extract, one replicate of n = 3, n.d. = not detected; for Relative number of matches with the four most abundant signals in human plasma, Zebrafish larvae / Relative number of matches with the four most abundant signals in human urine, Zebrafish larvae: larvae exposed to 100 μM, human data from Wagmann et al., [2019b]
[6] = after subcutaneous administration of 1P-LSD to rats; ref Halberstadt et al., [2019]; cited from earlier work

SMILES | Relative number of matches with the four most abundant signals in human plasma, pHLS9 [25 μM] [1] [%] | Relative number of matches with the four most abundant signals in human urine, pHLS9 [25 μM] [1] [%] | Absolute peak area, HepaRG [25 μM] (HepaRG cells) | Number of phase I metabolites detected, HepaRG [25 μM] (HepaRG cells) | Number of phase II metabolites detected, HepaRG [25 μM] (HepaRG cells) | Absolute peak area, HepaRG [250 μM] (HepaRG cells) | Number of phase I metabolites detected, HepaRG [250 μM] (HepaRG cells) | Number of phase II metabolites detected, HepaRG [250 μM] (HepaRG cells) | Relative number of matches with the four most abundant signals in human plasma, HepaRG [25 μM] (HepaRG cells) [%] | Relative number of matches with the four most abundant signals in human plasma, HepaRG [250 μM] (HepaRG cells) [%] | Relative number of matches with the four most abundant signals in human urine, HepaRG [25 μM] (HepaRG cells) [%] | Relative number of matches with the four most abundant signals in human urine, HepaRG [250 μM] (HepaRG cells) [%] | Survival rate (zebrafish larvae [2]; 0.01 μM) [%] | Survival rate (zebrafish larvae [2]; 0.1 μM) [%] | Survival rate (zebrafish larvae [2]; 1 μM) [%] | Survival rate (zebrafish larvae [2]; 10 μM) [%] | Survival rate (zebrafish larvae [2]; 50 μM) [%] | Survival rate (zebrafish larvae [2]; 100 μM) [%] | Survival rates for all tested concentrations (zebrafish larvae [2]) [%] | Absolute peak area, Zebrafish larvae [100 µM] (zebrafish larvae [5]) | also measured
CCCC(NCC)C(=O)c1ccc2c(c1)OCO2 (stereo not shown) [Ephylone, N-ethylnorpentylone] | 100 | 100 | 6.38E+08 | 2 | 4 | 3.94E+09 | 4 | 6 | 75 | 100 | 75 | 100 | 100 | 100 | 100 | 100 | 100 | 100 | 100 | 3.57E+09 | Concentration considered non-toxic for zebrafish larvae (4 dpf) (zebrafish larvae [2]): 100 µM; Malformations (zebrafish larvae [2]): no malformations; Number of phase I metabolites detected, pHLS9 [25 μM] [3]: 5 (Wagmann et al., [2019b]); Number of phase II metabolites detected, pHLS9 [25 μM] [3]: 8 (Wagmann et al., [2019b]); Detection in pHLS9 [25 µM] ([3]; ephylone and metabolites, 2019a): +; Monooxygenases involved in metabolism (monooxygenases): CYP1A2, CYP2B6, CYP2C19, and CYP3A4; Signals with the highest abundance in human plasma and/or urine ([4]; human biosamples after intake of ephylone and 4F-PHP, ref Wagmann et al., [2019b]): highest ephylone-related signals; Number of phase I metabolites detected, Zebrafish larvae (zebrafish larvae [5]): 5; Number of phase II metabolites detected, Zebrafish larvae (zebrafish larvae [5]): 4; Relative number of matches with the four most abundant signals in human plasma, Zebrafish larvae (zebrafish larvae [5]): 100%; Relative number of matches with the four most abundant signals in human urine, Zebrafish larvae (zebrafish larvae [5]): 100%
CCN(CC)C(=O)[C@@H]1C=C2c3cccc4[nH]cc(c34)C[C@H]2N(C)C1 [ML7, LSD] |  |  | 8.59E+08 |  |  | 5.95E+09 |  |  |  |  |  |  |  |  |  |  |  |  |  | 1.25E+09 | Detection in pHLS9 [25 µM] ([3]; 1P-LSD and metabolites, 2019b): +; Detection in serum and urine samples of an intoxicated patient ([4]; after assumed consumption of a blotter containing 1P-LSD, ref Grumann et al., [2019]): able to find; Detection in rat plasma [6]: able to detect
CCCCC(C(=O)c1ccc(F)cc1)N1CCCC1 (stereo not drawn) [Metabolite 4F-PHP, 4-fluoro-alpha-pyrrolidinohexiophenone] | 75 | 75 | 6.65E+08 | 5 | 0 | 5.45E+09 | 6 | 1 | 50 | 50 | 25 | 50 | 100 | 100 | 100 | 100 | 100 | 100 | 100 | 4.36E+09 | Concentration considered non-toxic for zebrafish larvae (4 dpf) (zebrafish larvae [2]): 100 µM; Malformations (zebrafish larvae [2]): no malformations; Number of phase I metabolites detected, pHLS9 [25 μM] [3]: 6 (Wagmann et al., [2019b]); Number of phase II metabolites detected, pHLS9 [25 μM] [3]: 2 (Wagmann et al., [2019b]); Detection in pHLS9 [25 µM] ([3]; 4F-PHP and metabolites, 2019a): +; Monooxygenases involved in metabolism (monooxygenases): CYP1A2, CYP2B6, CYP2C19, and CYP3A4; Number of phase I metabolites detected, Zebrafish larvae (zebrafish larvae [5]): 8; Number of phase II metabolites detected, Zebrafish larvae (zebrafish larvae [5]): 3; Relative number of matches with the four most abundant signals in human plasma, Zebrafish larvae (zebrafish larvae [5]): 100%; Relative number of matches with the four most abundant signals in human urine, Zebrafish larvae (zebrafish larvae [5]): 75%
